{"source": "patent US8921268B2", "about": "“Herbicidal composition” (Sumitomo Chemical Company, Limited, priority 2012, dated 2014)", "key": {"Echinochloa crus-galli": {"system": "Echinochloa crus-galli", "assay": "Pre-emergence soil spray pot test, herbicidal activity (Example 3)", "format": "in vivo", "settings": "scale 0 to 100; 2 g/ha; soil spray on day of sowing; twenty days after spray treatment; greenhouse", "method": "(§1) Echinochloa crus-galli was sowed on a plastic pot filled with a soil. Following the sowing, on the day of the sowing, a mixed liquid of flumioxazin, isoxaflutole, and cyprosulfamide was sprayed uniformly so that the amounts of the agents might become those shown in Table 3 in a sprayed water amount of 500 L/ha. The mixed liquid of flumioxazin, isoxaflutole, and cyprosulfamide was prepared by dissolving the respective compounds in prescribed amounts separately in acetone containing 2% (w/v) of Tween 20 (surfactant, produced by Tokyo Chemical Industry Co., Ltd.), diluting the respective solutions with water and then combining them, followed by dilution with water so that the final acetone concentration of the spray liquid might be 10% by volume. After the spray treatment, the pot was carried into a greenhouse. Twenty days after the spray treatment, the herbicidal activity to Echinochloa crus-galli was evaluated."}, "Ipomoea hederacea": {"system": "Ipomoea hederacea", "assay": "Pre-emergence soil spray pot test, herbicidal activity (Example 2)", "format": "in vivo", "settings": "scale 0 to 100; 20 g/ha; soil spray on day of sowing; ten days after spray treatment; greenhouse", "method": "as §1, with “Ipomoea hederacea” for “Echinochloa crus-galli”, “2” for “3”, “Ten” for “Twenty”"}}, "data": [{"smiles": "C#CCN1C(=O)COc2cc(F)c(N3C(=O)C4=C(CCCC4)C3=O)cc21", "note": "[Flumioxazin]", "values": [{"measurement": "Herbicidal activity Echinochloa crus-galli", "setting": "Echinochloa crus-galli", "value": 10}, {"measurement": "Herbicidal activity Ipomoea hederacea", "setting": "Ipomoea hederacea", "value": 80}]}]}
